EC50 data for 26 compounds are collected here from patent US12404289B2 (Gilead Sciences, Inc., priority 2020, dated 2025).

The test system of one assay is Respiratory syncytial virus (RSV) strain A2. The assay is described as follows: RSV antiviral assay (HEp-2, 96 well). In kind it is cell-based. To be noted: human respiratory syncytial virus, HEp-2, 96 h, read-out: EC50 RSV HEP2 96, HEp-2 cells, RSV A2, MOI=4, 4 days, 96 well; Table 3.
By EC50 is commonly meant the concentration giving half of the maximal effect. On to `CC(=O)O[C@H]1[C@@H](OC(C)=O)[C@](C#N)(c2ccc3c(N)ncnn23)O[C@@H]1COP(=O)(N[C@@H](C)C(=O)OC1CCC1)Oc1ccc(C2CC2)cc1` (single isomer, unassigned) [Example 53a], for which the EC50 is 38.1 nM.
For `CC(C)C(=O)O[C@H]1[C@@H](OC(=O)C(C)C)[C@](C#N)(c2ccc3c(N)ncnn23)O[C@@H]1COP(=O)(N[C@@H](C)C(=O)OC1CCCCCCC1)Oc1ccc(C(C)(C)C)cc1` (single isomer, unassigned) [Example 77a], the EC50 amounted to 194 nM.
Turning to `C[C@H](NP(=O)(OC[C@H]1O[C@@](C#N)(c2ccc3c(N)ncnn23)[C@H](O)[C@@H]1O)Oc1ccc(C(C)(C)C)cc1)C(=O)O[C@H]1CC[C@H](C(F)(F)F)CC1` (single isomer, unassigned) [Example 84a], the EC50 came out at 185 nM.
On the same count and under the same terms, then `CC(C)C(=O)O[C@H]1[C@@H](OC(=O)C(C)C)[C@](C#N)(c2ccc3c(N)ncnn23)O[C@@H]1COP(=O)(N[C@@H](C)C(=O)O[C@H]1CC[C@H](C(F)(F)F)CC1)Oc1ccc(C(C)(C)C)cc1` (single isomer, unassigned) [Example 85a], with 62.7 nM; and `CCC(CC)COC(=O)[C@H](C)NP(=O)(OC[C@H]1O[C@@](C#N)(c2ccc3c(N)ncnn23)[C@H](O)[C@@H]1O)Oc1ccc2ccccc2c1` (single isomer, unassigned) [Intermediate S3-a], with 28.2 nM.
In the case of `CCC(=O)O[C@@H]1[C@H](OC(=O)C(N)C(C)C)[C@@H](COP(=O)(N[C@@H](C)C(=O)OCC(CC)CC)Oc2ccccc2)O[C@@]1(C#N)c1ccc2c(N)ncnn12` (stereo in doubt) [Example 88, [(2R,3R,4R,5R)-5-(4-aminopyrrolo[2,1-f][1,2,4]triazin-7-yl)-5-cyano-2-[[[[(1S)-2-(2-ethylbutoxy)-1-methyl-2-oxo-ethyl]amino]-phenoxy-phosphoryl]oxymethyl]-4-propanoyloxy-tetrahydrofuran-3-yl] (2R)-2-amino-3-methyl-butanoate], the EC50 is 21.4 nM.
Same read-out and setting: next, `C[C@H](NP(=O)(OC[C@H]1O[C@@](C#N)(c2ccc3c(N)ncnn23)[C@H](O)[C@@H]1O)Oc1ccc(C2CC2)cc1)C(=O)OC1CCC1` (stereo partly drawn) [Example 51a, cyclobutyl (2S)-2-[[[(2R,3S,4R,5R)-5-(4-aminopyrrolo[2,1-f][1,2,4]triazin-7-yl)-5-cyano-3,4-dihydroxy-tetrahydrofuran-2-yl]methoxy-(cyclopropylphenoxy)phosphoryl]amino]propanoate]: 66.1 nM; `CC(C)C(=O)O[C@H]1[C@@H](OC(=O)C(C)C)[C@](C#N)(c2ccc3c(N)ncnn23)O[C@@H]1COP(=O)(N[C@@H](C)C(=O)OCCC(C)(C)C)Oc1ccc(C(C)(C)C)cc1` (stereo partly drawn) [Example 62, [(2R,3R,4R,5R)-5-(4-aminopyrrolo[2,1-f][1,2,4]triazin-7-yl)-2-[[(4-tert-butylphenoxy)-[[(1S)-2-(3,3-dimethylbutoxy)-1-methyl-2-oxo-ethyl]amino]phosphoryl]oxymethyl]-5-cyano-4-(2-methylpropanoyloxy)tetrahydrofuran-3-yl] 2-methylpropanoate]: 70.6 nM; `CCOC(=O)[C@H](C)NP(=O)(OC[C@H]1O[C@@](C#N)(c2ccc3c(N)ncnn23)[C@H](O)[C@@H]1O)Oc1ccc(C(C)C)cc1` (some centres unmarked) [Example 63a]: 104 nM.
Take `CCOC(=O)[C@H](C)NP(=O)(OC[C@H]1O[C@@](C#N)(c2ccc3c(N)ncnn23)[C@H](OC(=O)C(C)C)[C@@H]1OC(=O)C(C)C)Oc1ccc(C(C)C)cc1` (stereo partly drawn) [Example 64, [(2R,3R,4R,5R)-5-(4-aminopyrrolo[2,1-f][1,2,4]triazin-7-yl)-5-cyano-2-[[[[(1S)-2-ethoxy-1-methyl-2-oxo-ethyl]amino]-(4-isopropylphenoxy)phosphoryl]-oxymethyl]-4-(2-methylpropanoyloxy)tetrahydrofuran-3-yl] 2-methylpropanoate]: the EC50 was found to be 57.9 nM.
As to `CCC(CC)COC(=O)[C@H](C)NP(=O)(OC[C@H]1O[C@@](C#N)(c2ccc3c(N)ncnn23)[C@H](O)[C@@H]1O)Oc1cccc(C(C)(C)C)c1` (some centres unmarked) [Example 68a], the EC50 worked out at 60.8 nM.
With `CCC(CC)COC(=O)[C@H](C)NP(=O)(OC[C@H]1O[C@@](C#N)(c2ccc3c(N)ncnn23)[C@H](OC(=O)C(C)C)[C@@H]1OC(=O)C(C)C)Oc1ccc2ccccc2c1` (stereo partly drawn) [Example 69a, [(2R,3R,4R,5R)-5-(4-aminopyrrolo[2,1-f][1,2,4]triazin-7-yl)-5-cyano-2-[[[[(1S)-2-(2-ethylbutoxy)-1-methyl-2-oxo-ethyl]amino]-(2-naphthyloxy)phosphoryl]oxymethyl]-4-(2-methylpropanoyloxy)tetrahydrofuran-3-yl] 2-methylpropanoate], the EC50 is 22.1 nM.
For `CCC(CC)COC(=O)[C@H](C)NP(=O)(OC[C@H]1O[C@@](C#N)(c2ccc3c(N)ncnn23)[C@H](O)[C@@H]1O)Oc1ccc(C[C@H](NC(=O)OCc2ccccc2)C(=O)OCCC(C)C)cc1` (stereo partly drawn) [Example 71, isopentyl (2S)-3-[4-[[(2R,3S,4R,5R)-5-(4-aminopyrrolo[2,1-f][1,2,4]triazin-7-yl)-5-cyano-3,4-dihydroxy-tetrahydrofuran-2-yl]methoxy-[[(1S)-2-(2-ethylbutoxy)-1-methyl-2-oxo-ethyl]amino]phosphoryl]oxyphenyl]-2-(benzyloxycarbonylamino)propanoate], the EC50 is 1790 nM.
On the same count and under the same terms, next, `CCC(CC)COC(=O)[C@H](C)NP(=O)(OC[C@H]1O[C@@](C#N)(c2ccc3c(N)ncnn23)[C@H](OC(=O)C(C)C)[C@@H]1OC(=O)C(C)C)Oc1ccc(C[C@H](NC(=O)OCc2ccccc2)C(=O)OCCC(C)C)cc1` (stereo partly drawn) [Example 72, (2R,3R,4R,5R)-2-(4-aminopyrrolo[2,1-f][1,2,4]triazin-7-yl)-5-((((4-((S)-2-(((benzyloxy)carbonyl)amino)-3-(isopentyloxy)-3-oxopropyl)phenoxy)(((S)-1-(2-ethylbutoxy)-1-oxopropan-2-yl)amino)phosphoryl)oxy)methyl)-2-cyanotetrahydrofuran-3,4-diyl bis(2-methylpropanoate)]: 556 nM; `C[C@H](NP(=O)(OC[C@H]1O[C@@](C#N)(c2ccc3c(N)ncnn23)[C@H](O)[C@@H]1O)Oc1ccc(C(C)(C)C)cc1)C(=O)OC1CCCCCCC1` (stereo partly drawn) [Example 73, cyclooctyl (2S)-2-[[[(2R,3S,4R,5R)-5-(4-aminopyrrolo[2,1-f][1,2,4]triazin-7-yl)-5-cyano-3,4-dihydroxy-tetrahydrofuran-2-yl]methoxy-(4-tert-butylphenoxy)phosphoryl]amino]propanoate]: 552 nM.

The same assay, now with this note: read-out: EC50 RSV HEP2 96; HEp-2 cells, RSV A2, MOI=4, 4 days, 96 well; Table 3.
For the compound `CC(C)C(=O)O[C@H]1[C@@H](OC(=O)C(C)C)[C@](C#N)(c2ccc3c(N)ncnn23)O[C@@H]1COP(=O)(N[C@@H](C)C(=O)OCCC(C)(C)C)Oc1ccccc1` (single isomer, unassigned) [Example 56a], the EC50 turned out to be 35.5 nM.
Take `CC(C)C(=O)O[C@H]1[C@@H](OC(=O)C(C)C)[C@](C#N)(c2ccc3c(N)ncnn23)O[C@@H]1COP(=O)(N[C@@H](C)C(=O)OCCC(C)(C)C)Oc1ccccc1` (single isomer, unassigned) [Example 56b]: the EC50 is 74.7 nM.
Same read-out and setting: then `CC(C)C(=O)O[C@H]1[C@@H](OC(=O)C(C)C)[C@](C#N)(c2ccc3c(N)ncnn23)O[C@@H]1COP(=O)(N[C@@H](C)C(=O)OC1CCCCCCC1)Oc1ccc(C(C)(C)C)cc1` (single isomer, unassigned) [Example 77b], with 198 nM; and `C[C@H](NP(=O)(OC[C@H]1O[C@@](C#N)(c2ccc3c(N)ncnn23)[C@H](O)[C@@H]1O)Oc1ccc(C(C)(C)C)cc1)C(=O)O[C@H]1CC[C@H](C(F)(F)F)CC1` (single isomer, unassigned) [Example 84b], with 186 nM; and `CC(C)C(=O)O[C@H]1[C@@H](OC(=O)C(C)C)[C@](C#N)(c2ccc3c(N)ncnn23)O[C@@H]1COP(=O)(N[C@@H](C)C(=O)O[C@H]1CC[C@H](C(F)(F)F)CC1)Oc1ccc(C(C)(C)C)cc1` (single isomer, unassigned) [Example 85b], with 80.5 nM.
On to `C[C@H](NP(=O)(OC[C@H]1O[C@@](C#N)(c2ccc3c(N)ncnn23)[C@H](O)[C@@H]1O)Oc1cccc2ccccc12)C(=O)OC1CCC1` (single isomer, unassigned) [Intermediate P7a-1], for which the EC50 amounted to 224 nM.
Same read-out and setting: next, `C[C@H](NP(=O)(OC[C@H]1O[C@@](C#N)(c2ccc3c(N)ncnn23)[C@H](O)[C@@H]1O)Oc1ccc(C2CC2)cc1)C(=O)OC1CCC1` (stereo partly drawn) [Example 51b, cyclobutyl (2S)-2-[[[(2R,3S,4R,5R)-5-(4-aminopyrrolo[2,1-f][1,2,4]triazin-7-yl)-5-cyano-3,4-dihydroxy-tetrahydrofuran-2-yl]methoxy-(cyclopropylphenoxy)phosphoryl]amino]propanoate]: 86.8 nM; `CC(C)C(=O)O[C@H]1[C@@H](OC(=O)C(C)C)[C@](C#N)(c2ccc3c(N)ncnn23)O[C@@H]1COP(=O)(N[C@@H](C)C(=O)OC1CCC1)Oc1ccc(C2CC2)cc1` (some centres unmarked) [Example 52b]: 25.4 nM.
Still for that read-out and setting: next, `CCOC(=O)[C@H](C)NP(=O)(OC[C@H]1O[C@@](C#N)(c2ccc3c(N)ncnn23)[C@H](O)[C@@H]1O)Oc1ccc(C(C)C)cc1` (some centres unmarked) [Example 63b]: 98.6 nM; `CCC(CC)COC(=O)[C@H](C)NP(=O)(OC[C@H]1O[C@@](C#N)(c2ccc3c(N)ncnn23)[C@H](O)[C@@H]1O)Oc1cccc(C(C)(C)C)c1` (some centres unmarked) [Example 68b]: 34.4 nM; `CCC(CC)COC(=O)[C@H](C)NP(=O)(OC[C@H]1O[C@@](C#N)(c2ccc3c(N)ncnn23)[C@H](OC(=O)C(C)C)[C@@H]1OC(=O)C(C)C)Oc1ccc2ccccc2c1` (stereo partly drawn) [Example 69b, [(2R,3R,4R,5R)-5-(4-aminopyrrolo[2,1-f][1,2,4]triazin-7-yl)-5-cyano-2-[[[[(1S)-2-(2-ethylbutoxy)-1-methyl-2-oxo-ethyl]amino]-(2-naphthyloxy)phosphoryl]oxymethyl]-4-(2-methylpropanoyloxy)tetrahydrofuran-3-yl] 2-methylpropanoate]: 36.9 nM.
